SMILES strings stand for the structures.

Results on one molecule are retold here after US5073571A, “Method of inhibiting virus” (priority 1989, dated 1991).

In the experiment the test system is HIV-1. Description: HIV-1 replication in H9 cells, p24 antigen ELISA. Format: cell-based, HIV-1 strain HXB2gptX (in human H9 cells). The note with it: 20-40 μM range. As to the method:
Media was changed every other day. The effect of these compounds on virus production was determined by measuring the reverse transcriptase (RT) activity in samples of the cell culture supernatants. […] Negative controls consisted of no additions or 0.1ethanol. The results of duplicate assays were averaged. Panel B -Concentration-dependent effects of 13-oxamyristic acid on HIV-1 replication as measured by RT activity (percent of untreated control) and the presence of p24 antigen (ng/ml determined by ELISA). Error bars indicate the S.E.M. of assays done in triplicate. […] Panel D - Toxicity of 13-oxamyristic acid determined by viable cell count (trypan blue exclusion), as well as by [^3 H]thymidine and [^3 H]leucine labeling (see under Materials and Methods, Example 16, below). The incorporation of these radiolabeled compounds was determined in the total cell population contained in a well after 10 days of treatment with the analog. […]
Assay for HIV-1 Replication. […] The titer of the virus stock was determined by serial dilution using syncytia formation and reverse transcriptase activity (see below) as a measure of infectivity in H9 cells. […]
Virus Assays. Virus was quantitated using supernatant solutions of cells harvested on day 8 (m.o.i.=0.01) or day 10 (m.o.i.=0.001) of treatment. […]

Regarding `COCCCCCCCCCCCC(=O)O` [13-oxamyristate, 12-(Methoxy)dodecanoic acid], the “reduction in virus replication (p24 ELISA)” value is recorded as “greater than 90%”.
